From PubChem BioAssay (NCI)
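Where inhibition never reached the appropriate level, the endpoint shown equals the highest concentration tested. Otherwise, values were interpolated linearly from a five-concentration, 48-hour dose response in 96-well plates. TGI denotes the concentration required for complete inhibition of growth.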

What was measured:
Experiment in all cases: growth of human tumour cells (NCI), 48 h
HCT-116 colon = tested on: HCT-116 colon
HL-60(TB) leukemia = tested on: HL-60(TB) leukemia
HOP-62 NSCLC = tested on: HOP-62 NSCLC
HT29 colon = tested on: HT29 colon
MDA-MB-435 = tested on: MDA-MB-435
MDA-N = tested on: MDA-N
NCI-H460 lung = tested on: NCI-H460 lung
NCI/ADR-RES ovarian = tested on: NCI/ADR-RES ovarian
OVCAR-8 ovarian = tested on: OVCAR-8 ovarian
SF-295 CNS = tested on: SF-295 CNS
SF-539 CNS = tested on: SF-539 CNS
SK-MEL-2 melanoma = tested on: SK-MEL-2 melanoma
SK-MEL-28 melanoma = tested on: SK-MEL-28 melanoma
SK-OV-3 ovarian = tested on: SK-OV-3 ovarian
SR leukemia = tested on: SR leukemia
T-47D breast = tested on: T-47D breast
U251 CNS = tested on: U251 CNS

Cc1cc(OCc2nnc3n2N=C(c2cc(F)c(Cl)cc2Cl)/C(=C/c2ccc(Cl)cc2)S3)ccc1Cl
TGI (HCT-116 colon): 66.9 µM | TGI (HL-60(TB) leukemia): 21.3 µM | TGI (HOP-62 NSCLC): > 100 µM | TGI (HT29 colon): 52.5 µM | TGI (MDA-MB-435): > 100 µM | TGI (MDA-N): > 100 µM | TGI (NCI-H460 lung): > 100 µM | TGI (NCI/ADR-RES ovarian): > 100 µM | TGI (OVCAR-8 ovarian): 39.7 µM | TGI (SF-295 CNS): > 100 µM | TGI (SF-539 CNS): > 100 µM | TGI (SK-MEL-2 melanoma): > 100 µM | TGI (SK-MEL-28 melanoma): 54.9 µM | TGI (SK-OV-3 ovarian): > 100 µM | TGI (SR leukemia): 30.4 µM | TGI (T-47D breast): > 100 µM | TGI (U251 CNS): 43.4 µM

Cc1cn(CCCCCOC(=O)NC(CCCN=C(N)N)C(=O)O)c(=O)[nH]c1=O (centres undefined)
TGI (HCT-116 colon): > 100 µM | TGI (HL-60(TB) leukemia): > 100 µM | TGI (HOP-62 NSCLC): > 100 µM | TGI (HT29 colon): 60.1 µM | TGI (MDA-MB-435): 47.5 µM | TGI (MDA-N): 31.3 µM | TGI (NCI-H460 lung): > 100 µM | TGI (NCI/ADR-RES ovarian): > 100 µM | TGI (OVCAR-8 ovarian): > 100 µM | TGI (SF-295 CNS): > 100 µM | TGI (SF-539 CNS): > 100 µM | TGI (SK-MEL-2 melanoma): > 100 µM | TGI (SK-MEL-28 melanoma): > 100 µM | TGI (SK-OV-3 ovarian): > 100 µM | TGI (SR leukemia): 30.8 µM | TGI (T-47D breast): > 100 µM | TGI (U251 CNS): > 100 µM

CCO/C=N/NC(=O)CSc1nc2ccc(I)cc2c(=O)n1Cc1ccccc1
TGI (HCT-116 colon): > 100 µM | TGI (HL-60(TB) leukemia): > 100 µM | TGI (HOP-62 NSCLC): > 100 µM | TGI (HT29 colon): > 100 µM | TGI (MDA-MB-435): > 100 µM | TGI (MDA-N): > 100 µM | TGI (NCI-H460 lung): > 100 µM | TGI (NCI/ADR-RES ovarian): > 100 µM | TGI (OVCAR-8 ovarian): > 100 µM | TGI (SF-295 CNS): > 100 µM | TGI (SF-539 CNS): > 100 µM | TGI (SK-MEL-2 melanoma): 65.1 µM | TGI (SK-MEL-28 melanoma): > 100 µM | TGI (SK-OV-3 ovarian): > 100 µM | TGI (SR leukemia): > 100 µM | TGI (T-47D breast): > 100 µM | TGI (U251 CNS): > 100 µM

CC(CCC#N)(CCC#N)C(=O)CC(O)(C(F)(F)F)C(F)(F)F
TGI (HCT-116 colon): 7.57 µM | TGI (HL-60(TB) leukemia): 3.99 µM | TGI (HOP-62 NSCLC): 38.7 µM | TGI (HT29 colon): 28.7 µM | TGI (MDA-MB-435): 72.7 µM | TGI (MDA-N): 4.88 µM | TGI (NCI-H460 lung): 39 µM | TGI (NCI/ADR-RES ovarian): 22.7 µM | TGI (OVCAR-8 ovarian): 16.6 µM | TGI (SF-295 CNS): 41 µM | TGI (SF-539 CNS): 8.75 µM | TGI (SK-MEL-2 melanoma): 89.2 µM | TGI (SK-MEL-28 melanoma): 27.2 µM | TGI (SK-OV-3 ovarian): > 100 µM | TGI (SR leukemia): 3.77 µM | TGI (T-47D breast): 16.2 µM | TGI (U251 CNS): 33.2 µM

CC(=O)Nc1ccc(-c2nc3cc(Cl)ccc3o2)cc1
TGI (HCT-116 colon): > 50 µM | TGI (HL-60(TB) leukemia): > 50 µM | TGI (HOP-62 NSCLC): > 50 µM | TGI (HT29 colon): > 50 µM | TGI (MDA-MB-435): > 50 µM | TGI (MDA-N): > 50 µM | TGI (NCI-H460 lung): > 50 µM | TGI (NCI/ADR-RES ovarian): > 50 µM | TGI (OVCAR-8 ovarian): > 50 µM | TGI (SF-295 CNS): > 50 µM | TGI (SF-539 CNS): > 50 µM | TGI (SK-MEL-2 melanoma): > 50 µM | TGI (SK-MEL-28 melanoma): > 50 µM | TGI (SK-OV-3 ovarian): > 50 µM | TGI (SR leukemia): > 50 µM | TGI (T-47D breast): > 50 µM | TGI (U251 CNS): > 50 µM

O=C(NC(CO)Cc1ccc(Oc2cc(CC(CO)NC(=O)OCc3ccccc3)ccc2OC(=O)OCc2ccccc2)cc1)OCc1ccccc1 (centres undefined)
TGI (HCT-116 colon): 40.7 µM | TGI (HL-60(TB) leukemia): 41.7 µM | TGI (HOP-62 NSCLC): 52.6 µM | TGI (HT29 colon): > 100 µM | TGI (MDA-MB-435): 45 µM | TGI (MDA-N): 50.3 µM | TGI (NCI-H460 lung): 38.9 µM | TGI (NCI/ADR-RES ovarian): > 100 µM | TGI (OVCAR-8 ovarian): 40.6 µM | TGI (SF-295 CNS): 35.2 µM | TGI (SF-539 CNS): 38.5 µM | TGI (SK-MEL-2 melanoma): 58.3 µM | TGI (SK-MEL-28 melanoma): 42.9 µM | TGI (SK-OV-3 ovarian): 69.8 µM | TGI (SR leukemia): 60.8 µM | TGI (T-47D breast): 23.1 µM

NC12Oc3cc(O)cc(O)c3C1(c1ccc(Cl)cc1)c1c(O)cc(O)cc1O2 (centres undefined)
TGI (HCT-116 colon): > 100 µM | TGI (HL-60(TB) leukemia): > 100 µM | TGI (HOP-62 NSCLC): > 100 µM | TGI (HT29 colon): > 100 µM | TGI (MDA-MB-435): > 100 µM | TGI (MDA-N): > 100 µM | TGI (NCI-H460 lung): > 100 µM | TGI (NCI/ADR-RES ovarian): > 100 µM | TGI (OVCAR-8 ovarian): > 100 µM | TGI (SF-295 CNS): > 100 µM | TGI (SF-539 CNS): > 100 µM | TGI (SK-MEL-2 melanoma): > 100 µM | TGI (SK-MEL-28 melanoma): > 100 µM | TGI (SK-OV-3 ovarian): > 100 µM | TGI (SR leukemia): > 100 µM | TGI (T-47D breast): > 100 µM | TGI (U251 CNS): > 100 µM

CCOC(=O)c1cc(C2(O)CCN(CC(C)CC)C2=O)c(-c2cc(C)no2)[nH]1 (centres undefined)
TGI (HCT-116 colon): > 100 µM | TGI (HL-60(TB) leukemia): > 100 µM | TGI (HOP-62 NSCLC): > 100 µM | TGI (HT29 colon): > 100 µM | TGI (MDA-MB-435): > 100 µM | TGI (MDA-N): > 100 µM | TGI (NCI-H460 lung): > 100 µM | TGI (NCI/ADR-RES ovarian): > 100 µM | TGI (OVCAR-8 ovarian): > 100 µM | TGI (SF-295 CNS): > 100 µM | TGI (SF-539 CNS): > 100 µM | TGI (SK-MEL-2 melanoma): > 100 µM | TGI (SK-MEL-28 melanoma): > 100 µM | TGI (SK-OV-3 ovarian): > 100 µM | TGI (SR leukemia): > 100 µM | TGI (T-47D breast): > 100 µM | TGI (U251 CNS): > 100 µM

S=c1[nH]n2c(COc3cccc(OCc4nnc5sc(=S)[nH]n45)c3)nnc2s1
TGI (HCT-116 colon): > 100 µM | TGI (HL-60(TB) leukemia): 72.1 µM | TGI (HOP-62 NSCLC): > 100 µM | TGI (HT29 colon): > 100 µM | TGI (MDA-MB-435): > 100 µM | TGI (MDA-N): > 100 µM | TGI (NCI-H460 lung): > 100 µM | TGI (NCI/ADR-RES ovarian): > 100 µM | TGI (OVCAR-8 ovarian): > 100 µM | TGI (SF-295 CNS): > 100 µM | TGI (SF-539 CNS): > 100 µM | TGI (SK-MEL-2 melanoma): > 100 µM | TGI (SK-MEL-28 melanoma): > 100 µM | TGI (SK-OV-3 ovarian): > 100 µM | TGI (SR leukemia): > 100 µM | TGI (T-47D breast): > 100 µM | TGI (U251 CNS): > 100 µM

CN1CCN(CN2C(=O)C3C4C=CC(C3C2=O)C2C(=O)N(CN3CCN(C)CC3)C(=O)C42)CC1 (centres undefined)
TGI (HCT-116 colon): > 62.1 µM | TGI (HL-60(TB) leukemia): 61.6 µM | TGI (HOP-62 NSCLC): > 87.3 µM | TGI (HT29 colon): 49.3 µM | TGI (MDA-MB-435): > 100 µM | TGI (MDA-N): > 100 µM | TGI (NCI-H460 lung): > 93.6 µM | TGI (NCI/ADR-RES ovarian): > 100 µM | TGI (OVCAR-8 ovarian): > 100 µM | TGI (SF-295 CNS): > 100 µM | TGI (SF-539 CNS): > 83.3 µM | TGI (SK-MEL-2 melanoma): > 100 µM | TGI (SK-MEL-28 melanoma): > 58 µM | TGI (SK-OV-3 ovarian): > 100 µM | TGI (SR leukemia): > 100 µM | TGI (T-47D breast): > 100 µM | TGI (U251 CNS): > 100 µM
